Source: publication PMC11721617, “Novel isobavachalcone derivatives induce apoptosis and necroptosis in human non-small cell lung cancer H1975 cells” (Journal of Enzyme Inhibition and Medicinal Chemistry, 2023)
Where two headings read alike, the source gives them in different places.

Columns and labels:
A549 = assay: MTT assay, cytotoxic activity; format: cell-based, human; conditions: A549 cells
Description: (§1) Four cell lines (H1975, A549, PC9, and Aml-12) were cultured in RPMI 1640 medium containing 10% foetal bovine serum (FBS) and 1% penicillin/streptomycin in an atmosphere with 5% CO2 and 95% relative humidity at 37 °C.
(§2) Cell viability was examined using the MTT assay. The cells grown in the logarithmic phase were seeded in 96-well plates at a density of 5 × 10^3 per well. The cells were treated with various concentrations (0, 5, 10, 20, 40, and 80 μM) of the compound at different times, respectively. At the end of time point, MTT solution (5 mg/ml) was added to each well and incubated at 37 °C for 4 h. Next, the media was removed, and formazan was dissolved in DMSO. Finally, absorbance was measured with a microplate spectrophotometer at 490 nm (Synergy HT, BioTek, VT, USA).

H1975 cells [1] = assay: Colony-formation assay; format: cell-based, human; conditions: 10 days
Description: Cells were seeded at a density of 1.5 × 10^3 cells/well into 6-well plates. When colonies formed, the media was replaced with fresh media at various concentrations of compound 16 (0, 1, 2, and 4 μM) and incubated for 10 days. At the end of the incubation time, the cells were washed three times with PBS, fixed with 4% paraformaldehyde for 15 min, stained with crystal violet solution for 10 min, and photographed.

H1975 cells [2] = assay: ATP detection; format: cell-based, human; conditions: H1975, 10, 20, 40, and 80 μM, 6 h
Description: Cells were seeded in 6-well plates at a density of 3 × 10^5 cells/well and incubated with different concentrations (0, 10, 20, 40, and 80 μM) of compound 16 for 6 h. Afterwards, the cells were washed three times with PBS, lysed with RIPA buffer, and the lysates were centrifuged at 12 000 rpm for 5 min. The intracellular ATP levels were measured using a luminoskan luminometer (Thermo Scientific, Atlanta, GA, USA), according to the ATP assay kit’s protocol.

[3] = MTT assay, cytotoxic activity on normal hepatocytes; format: cell-based, mouse; conditions: Aml-12 cells (normal hepatocytes); normal mouse hepatocytes Aml-12 cells, 72 h
Description: as §1, §2

Aml-12 cells = assay: as above; format: cell-based, mouse; conditions: Aml-12 cells relative to H1975 cells
Description: as §1, §2

H1975 cells [4] = assay: Detection of intracellular ROS (DCFH-DA, flow cytometry); format: cell-based, human
Description: Cells were seeded in 6-well plates at a density of 3 × 10^5 cells/well and incubated with different concentrations (0, 10, 20, 40, and 80 μM) of compound 16 or pre-treated with NAC (20 μM) incubated for 6 h, the cells were co-incubated with DCFH-DA for 20 min at 37° C in the dark. Finally, the intracellular ROS levels were measured using flow cytometry (Becton-Dickinson, Franklin Lakes, NJ, USA).

[5] = tested on: Bax, Bcl-2, Akt, Cyt C, caspase-9, caspase-3, RIP1, RIP3, p-RIP3, MLKL, p-MLKL in H1975 cells; assay: Western blotting of apoptosis- and necroptosis-related proteins; format: cell-based, human
Description: Cells were seeded in 100 mm dishes at a density of 3 × 10^6 cells/well and treated with different concentrations (0, 10, 20, 40, and 80 μM) of compound 16. After incubated for 24 h, the cells were harvested, and washed three times with PBS solution. Next, the cells were lysed with RIPA lysis buffer for 30 min on ice. Protein quantification was determined using the BCA protein assay kit. Equal amounts of proteins were separated by sodium dodecyl sulfate-polyacrylamide gel electrophoresis (SDS-PAGE) and transferred to PVDF membrane. The membrane was blocked with 5% non-fat milk and incubated with primary antibodies (Bax, Bcl-2, Akt, Cyt C, Caspase-9, Caspase-3, RIP1, RIP3, p-RIP3, MLKL, p-MLKL, and β-actin) for 2 h at room temperature, followed by the secondary antibodies for 2 h at room temperature. Finally, the blots were detected by a chemiluminescent gel imaging system (Bio-Rad, Hercules, CA, USA).

PC9 = assay: MTT assay, cytotoxic activity; format: cell-based; conditions: Homo sapiens, PC-9, PC9 cells, 72 h
Description: as §1, §2

H1975 = assay: MTT assay, cytotoxic activity / cell viability; format: cell-based, human; conditions: for viability at 40 µM / IC50: Homo sapiens; for IC50: NCI-H1975
Description: as §1, §2

H1975 cells [6] = assay: Flow cytometry with Annexin V/PI dual staining; format: cell-based, human; conditions: 24 h
Description: Cells were seeded (3 × 10^5 per well) in 6-well plates and incubated overnight. After adherence, the cells were treated with various concentrations (0, 10, 20, 40, and 80 μM) of compound 16 for 24 h. Furthermore, the cells were harvested, washed three times with PBS, and stained with Annexin V (FITC Annexin V) and propidium iodide (PI) staining solution for 30 min in the dark. The percentage of cell death was measured by flow cytometry (Becton-Dickinson, Franklin Lakes, NJ, USA).

COc1cc(C(c2cc(C(=O)C=Cc3ccc(O)cc3)c(O)c(CC=C(C)C)c2O)N2CCOCC2)cc(OC)c1OC (centres unmarked) [Compound 16, (E)-1-(2,4-Dihydroxy-3-(3-methylbut-2-en-1-yl)-5-(morpholino(3,4,5-trimethoxyphe-nyl)methyl)phenyl)-3-(4-hydroxyphenyl)prop-2-en-1-one]
Enhancement of cytotoxic effects compared to IBC (A549): 1.53 fold
IC50 (A549; Homo sapiens, 72 h, MTT): 14.2 µM
Colony formation rate (H1975 cells [1]; H1975, 1 μM): 51.34%
Colony formation rate (H1975 cells [1]; H1975, 2 μM): 27.70%
Colony formation rate (H1975 cells [1]; H1975, 4 μM): 14.87%
Cellular ATP levels (H1975 cells [2]): gradually decreased
IC50 at 72 h [3]: 10.1 ± 0.58 µM
SI value (selective inhibition) (Aml-12 cells): 2.32
Intracellular ROS level enhancement (H1975 cells [4]; H1975, 10 μM, 6 h): 1.86%
Intracellular ROS level enhancement (H1975 cells [4]; H1975, 20 μM, 6 h): 2.21%
Intracellular ROS level enhancement (H1975 cells [4]; H1975, 40 μM, 6 h): 3.74%
Intracellular ROS level enhancement (H1975 cells [4]; H1975, 80 μM, 6 h): 5.82%
Intracellular ROS level enhancement (H1975 cells [4]; H1975, compound 16 (40 μM) alone, Figure 6(E)): 3.75%
Intracellular ROS level enhancement (H1975 cells [4]; H1975, compound 16 (40 μM) in combination with NAC (20 μM), Figure 6(E)): 2.02%
RIP1 protein levels ([5]; H1975, 20, 40, and 80 µM): down-regulation
Bax and Cyt C expression ([5]; H1975, 24 h): increasing
Bcl-2 and Akt protein levels ([5]; H1975, 24 h): decreasing
Caspase-9 and -3 ([5]; H1975, 24 h): cleaving
Expression of RIP3, p-RIP3, MLKL, and p-MLKL protein levels ([5]; H1975, 24 h): increased
IC50 (PC9): 16.1 µM
Effect of NAC on compound 16 induced cell death (cell viability) (H1975; H1975, compound 16 (40 μM) 24 h, pre-treatment with NAC, p < 0.01, Figure 6(F)): protective effect
Effect of NSA (MLKL inhibitor) on compound 16 induced necroptosis (cell viability) (H1975; H1975, compound 16 (40 μM) 24 h, pre-treatment with NSA (20 μM), p < 0.01): protective effect
Cell viability (H1975; H1975, compound 16 (40 μM) 24 h with pre-treatment with Nec-1 (20 μM), Figure 4(D)): 25.33%
viability at 40 µM (H1975; NCI-H1975, 24 h, H1975, compound 16 (40 μM) alone, 24 h, Figure 3(C)): 12.7%
viability at 40 µM (H1975; NCI-H1975, 24 h, H1975, compound 16 (40 μM) alone, 24 h, Figure 4(D)): 14.8%
viability at 40 µM (H1975; NCI-H1975, H1975, compound 16 (40 μM) 24 h with pre-treatment with z-VAD-FMK (20 μM), Figure 3(C)): 35.4%
IC50 (H1975; H1975 cells, 72 h, MTT, read-out: Cytotoxic activity IC50, H1975): 4.35 µM
IC50 (H1975; read-out: IC50 values against H1975 and A549 cell lines (range over both)): 4.35 to 15 µM
Cell death rate (Annexin V/PI) (H1975 cells [6]; H1975, 10 μM): 14.7%
Cell death rate (Annexin V/PI) (H1975 cells [6]; H1975, 20 μM): 22.7%
Cell death rate (Annexin V/PI) (H1975 cells [6]; H1975, 40 μM): 34.3%
Cell death rate (Annexin V/PI) (H1975 cells [6]; H1975, 80 μM): 54.9%
